# Measurements published in US20250090510A1, “eIF4G1-eIF1 INHIBITORS AND USE THEREOF” (YEDA RESEARCH AND DEVELOPMENT CO. LTD., priority 2022, published 2025).
# Target: T1, eIF1-eIF4G1 complex (Homo sapiens, UniProt Q04637)
# T1 construct: co-immunoprecipitation of endogenous eIF4G1 in HEK293T cells expressing HA-eIF1 or HA-eIF4E was performed; endogenous in cells; host or cells: HEK293T (eIF4G1 endogenous; HA-eIF1 transfected)
# Test: Co-immunoprecipitation of endogenous eIF4G1 with HA-eIF1
# Assay type: cell-based
# Settings: HEK293T; i14G1-10 20 μM, i14G1-12 10 μM; 4 h
# Description: FIGS. 2A-C: The effect of i14G1-10 and i14G1-12 on eIF1-eIF4G1 and eIF4E-eIF4G1 complexes. (2A-B) HA-eIF1 and HA-eIF4E were each transfected into HEK293T cells and 48 h after transfection cells were treated with DMSO or i14G1-10 (2A) or i14G1-12 (2B) for 4 h, followed by immunoprecipitation of HA-eIF1 or HA-eIF4E using anti-HA-agarose beads. Western blot was run to check co-immunoprecipitation of endogenous eIF4G1 with HA-eIF1 or HA-eIF4E. The graphs represent the co-immunoprecipitation of eIF4G1 with HA-eIF1 (right) or HA-eIF4E (left). Co—IP data shown as mean±SEM of 4-7 independent experiments. The asterisks denote statistically significant difference compared to DMSO, according to Student's t-tests (one-tailed, paired). *p<0.05. (2C) HEK293T cells were treated with DMSO, i14G1-10, or i14G1-12 for 4 h, followed by cell lysis. Respective cell lysates were incubated with cap analog (γ-Aminohexyl-m7GTP) beads for 2 h to precipitate bound eIF4E. Western blot was performed to check co-precipitation of eIF4G1 along with eIF4E on the cap-analog beads. The graph represents the binding fraction of eIF4G1 and eIF4E to the cap-analog beads (mean±SEM) with DMSO (black), i14G1-10 (blue), and i14G1-12 (red), n=6. The asterisks denote statistically significant difference compared to DMSO, according to Student's t-tests (one-tailed, paired). *p<0.05; **p<0.01.
# Co-immunoprecipitation. HEK293T cells were transfected with 5 μg of HA-eIF1 or HA-eIF4E plasmids along with 10 ng GFP plasmid to check for transfection efficiency using Jetprime reagent as per manufacturer's protocol. After 48 h, HA-eIF1 and HA-eIF4E expressing HEK293T cells were incubated with DMSO, i14G1-10 (20 μM), and […] (10 μM). 4 h later, cells were lysed using IP buffer (20 mM Tris pH8, 125 mM NaCl, 10% glycerol, 50 mM NaF, 1 mM […], 0.5% NP-40, and 0.2 mM EDTA) supplemented with fresh protease inhibitor cocktail (1:100) and PMSF 200 μM (1:100). Protein extract was taken for immunoprecipitation using either monoclonal anti-HA-agarose antibody (Sigma) or control IgG antibody in IP buffer, at 4° C. for 2 hours. […]
# T1 sequence (Q04637 whole entry, one chain of several): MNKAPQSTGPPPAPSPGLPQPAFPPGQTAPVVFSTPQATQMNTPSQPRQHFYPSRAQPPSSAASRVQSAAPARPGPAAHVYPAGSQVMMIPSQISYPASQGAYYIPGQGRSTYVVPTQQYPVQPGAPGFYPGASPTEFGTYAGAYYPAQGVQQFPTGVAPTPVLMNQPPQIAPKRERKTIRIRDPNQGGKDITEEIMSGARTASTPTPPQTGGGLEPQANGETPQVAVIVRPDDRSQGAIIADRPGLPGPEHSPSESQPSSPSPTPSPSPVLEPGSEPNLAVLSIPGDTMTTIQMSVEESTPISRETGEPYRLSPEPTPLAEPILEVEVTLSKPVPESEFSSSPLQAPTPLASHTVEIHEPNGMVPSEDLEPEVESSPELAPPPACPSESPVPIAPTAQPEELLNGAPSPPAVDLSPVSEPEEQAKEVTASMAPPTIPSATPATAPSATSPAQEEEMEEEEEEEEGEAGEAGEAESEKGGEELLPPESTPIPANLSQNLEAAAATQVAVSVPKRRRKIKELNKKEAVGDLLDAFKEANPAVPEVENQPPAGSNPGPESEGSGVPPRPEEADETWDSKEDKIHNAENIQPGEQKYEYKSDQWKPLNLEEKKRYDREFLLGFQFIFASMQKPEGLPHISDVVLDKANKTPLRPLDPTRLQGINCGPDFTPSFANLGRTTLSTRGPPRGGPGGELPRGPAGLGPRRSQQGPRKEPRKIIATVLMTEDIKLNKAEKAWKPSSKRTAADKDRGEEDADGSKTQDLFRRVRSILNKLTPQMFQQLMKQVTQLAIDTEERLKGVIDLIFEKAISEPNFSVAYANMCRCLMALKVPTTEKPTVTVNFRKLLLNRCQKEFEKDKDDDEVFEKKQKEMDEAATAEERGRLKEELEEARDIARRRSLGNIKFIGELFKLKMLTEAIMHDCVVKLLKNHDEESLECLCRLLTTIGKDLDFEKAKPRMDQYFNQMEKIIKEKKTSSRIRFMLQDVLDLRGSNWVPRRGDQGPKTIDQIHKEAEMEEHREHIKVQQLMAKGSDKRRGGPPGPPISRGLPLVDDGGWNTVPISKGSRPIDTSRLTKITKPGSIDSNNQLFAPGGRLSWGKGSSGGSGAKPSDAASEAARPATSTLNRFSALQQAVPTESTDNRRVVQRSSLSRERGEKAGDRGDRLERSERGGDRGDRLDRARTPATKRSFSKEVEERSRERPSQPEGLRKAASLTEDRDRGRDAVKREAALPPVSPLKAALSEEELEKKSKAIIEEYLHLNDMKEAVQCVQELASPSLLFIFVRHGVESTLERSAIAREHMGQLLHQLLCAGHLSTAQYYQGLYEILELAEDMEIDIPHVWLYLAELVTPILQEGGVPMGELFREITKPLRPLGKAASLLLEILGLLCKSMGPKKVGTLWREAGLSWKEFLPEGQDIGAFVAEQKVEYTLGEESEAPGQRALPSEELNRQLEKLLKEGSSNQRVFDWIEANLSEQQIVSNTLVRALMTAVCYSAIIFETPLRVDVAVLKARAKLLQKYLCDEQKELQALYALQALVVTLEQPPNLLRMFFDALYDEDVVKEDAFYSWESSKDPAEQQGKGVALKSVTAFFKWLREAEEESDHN
compound,measurement,value
Cn1ccnc1S/C(=C/C=C(C#N)C#N)c1ccc(Cl)cc1 [i14G1-12],reduction in eIF4G1 binding to HA-eIF1,25%
O=C(/C=C/Sc1ccc(C(F)(F)F)cn1)c1ccccc1 [i14G1-10],reduction in eIF4G1 binding to HA-eIF1,50%
